# Assay results reported in US8211922B2, “1-methylnicotinamide derivatives and formulations for treatment of lipoprotein abnormalities” (Cortria Corporation, priority 2005, dated 2012).
# Several values for one entry are separate records, joined by “and”; a condition that tells them apart may be missing. Identical values can stand only once.
# Key:
# dyslipidemic patients [1] = experiment: Anti-atherogenic effect of MNA after long term use (13 months), plasma lipids in patients; type: in vivo, human; conditions: Patient 2; change vs time 0; 13 months
# Protocol: The anti-atherogenic effect of MNA was investigated in 2 dyslipidemic patients. The enrollment criteria was: high level of TG (≧250 mg/dl) and/or high level of TC (≧200 mg/dl). The patients were treated with MNA for 13 months. The MNA was administered orally, two times a day (50 mg MNA) after meal.
# The plasma levels of TC, TG, and HDL were measured at baseline and during the therapy. The level of LDL was measured in those cases where it was possible (due to high TG level).
# [2] = tested on: dyslipidemic and cardiologic patients; experiment: Anti-atherogenic effect of MNA after short-term use (2 weeks), plasma lipids in patients; type: in vivo, human; conditions: for HDL change: after 2 weeks therapy
# Protocol: The anti-atherogenic effect of MNA was investigated in […] dyslipidemic and cardiologic patients. The enrollment criteria was: high level of TG (˜250 mg/dl) and/or high level of total cholesterol (TC) (≧200 mg/dl). The mean age of the patients was 57.5 (range 37-81 years). The enrolled patients were divided into two groups: dyslipidemic patients (4 patients) and dyslipidemic patients after acute coronary failure (myocardial infarction) (12 patients). The patients were treated with MNA for 2 weeks. The MNA was administered orally, three times a day, one capsule (30 mg MNA) after meal. The 16 patients have finished clinical examination.
# The plasma levels of TC, TG, and HDL were measured at baseline and after 2 weeks of therapy. The level of LDL was measured in those cases where it was possible (due to high TG level).
# Patient nos. 1-4 were dyslipidemic. Patient nos. 5-16 were dyslipidemic patients after acute coronary failure (myocardial infarction).
# apoE/LDLR−/− mice = experiment: Mice model of atheroprotection, quantitation of atherosclerosis; type: in vivo; conditions: female apoE/LDLR−/− mice, 100 mg/kg MNA for 2 months, vs placebo; FIG. 2
# Protocol: Female apoE/LDLR^−/− mice on C57BL/6J background were used for experiments. The experiments were conducted according to the Guidelines for Animal Care and Treatment of the European Communities and were approved by the Local Animal Ethics Committee. apoE/LDLR^−/− mice were fed with standard chow. MNA was given for 2 months (100 mg/kg, 4-6 months old apoE/LDLR^−/− mice) and effects of MNA compared to placebo-treated mice. In each group of mice (control and MNA) n=5.
# Development of atherosclerosis was determined by cross-section (aortic roots), en-face (whole aorta) analysis and quantified semiautomatically, as described before (Jawien et al. Eur J Clin Invest; 2006; 36:141-6). Briefly, the heart and whole aorta were washed by phosphate buffered saline, then the heart and the whole aorta were removed. The heart and ascending aorta were embedded in OCT compound and snap-frozen. Ten micrometer-thick cryosections were cut and after fixation in 4% paraformaldehyde were stained with Meyer's hematoxylin and oil red-O and lesion area was measured semiautomatically in each slide using LSM Image Browser software.
# dyslipidemic patients [3] = experiment: Anti-atherogenic effect of MNA after a single administration, plasma lipids; type: in vivo, human; conditions: for HDL % / TG % / TG/HDL % / Total Cholesterol %: change vs time 0; for TG: person
# Protocol: The anti-atherogenic effect of NINA after single administration was also investigated in dyslipidemic patients. The patient was treated with 100 mg MNA. The plasma levels of TC, TG, and HDL were measured at baseline and after 1 and 3 hours. The level of LDL was not measured due to high TG level. […] The increase of the HDL (24.8 vs. 29.0 mg/dl) was observed after the administration. The significant reduction of TG/HDL ratio (24.0 vs. 16.5) was observed.
# [4] = 30 mg MNA orally three times a day, after 2 weeks, individual patients
# [5] = 30 mg MNA orally three times a day, after 2 weeks, individual patients nos. 1-16
# [6] = change visit 2 vs visit 1, 30 mg MNA orally three times a day, 2 weeks, individual patients nos. 1-16
# [7] = change visit 2 vs visit 1, 2 weeks, individual patients
# [8] = mean of 16 patients, 30 mg MNA orally three times a day, after 2 weeks
# [9] = mean of 16 patients, after 2 weeks
# [10] = mean of 16 patients, change visit 2 vs visit 1, 2 weeks
substance,measurement,setting,value
1-methylnicotinamide chloride [MNA],LDL %,dyslipidemic patients [1],−60.88%
same,TG %,dyslipidemic patients [1],−47.02%
same,TG/HDL %,dyslipidemic patients [1],−67.07%
same,Total Cholesterol %,dyslipidemic patients [1],−42.47%
same,Glucose visit 2,[2]; [4],152 mg/dl and 81 mg/dl and 89 mg/dl (2×) and 90 mg/dl and 101 mg/dl and 129 mg/dl and 96 mg/dl (2×) and 82 mg/dl and 113 mg/dl and 128 mg/dl and 97 mg/dl and 111 mg/dl
same,LDL visit 2,[2]; [4],162 mg/dL and 171 mg/dL and 114 mg/dL and 82 mg/dL and 121 mg/dL and 111 mg/dL and 81 mg/dL and 149 mg/dL and 178 mg/dL and 148 mg/dL
same,Uric Acid visit 2,[2]; [4],7.2 mg/dL and 4.4 mg/dL and 8.9 mg/dL and 9.6 mg/dL and 6.6 mg/dL and 5.7 mg/dL and 5.3 mg/dL and 5.31 mg/dL and 5.26 mg/dL and 5.8 mg/dL and 7.33 mg/dL
same,HDL visit 2,[2]; [5],40 mg/dl and 41 mg/dl (2×) and 59 mg/dl and 31 mg/dl and 45 mg/dl (3×) and 46 mg/dl and 37 mg/dl and 36 mg/dl and 29 mg/dl and 38 mg/dl and 67 mg/dl and 72 mg/dl and 42 mg/dl
same,Total Cholesterol visit 2,[2]; [5],251 mg/dL and 260 mg/dL and 208 mg/dL and 155 mg/dL and 130 mg/dL and 203 mg/dL and 194 mg/dL and 159 mg/dL and 253 mg/dL and 271 mg/dL and 229 mg/dL and 146 mg/dL and 280 mg/dL and 188 mg/dL and 243 mg/dL and 231 mg/dL
same,TG/HDL ratio,[2]; after 2 weeks therapy (baseline 9.60),5.25
same,HDL change,[2]; group of dyslipidemic patients,substantial increase
same,HDL change,[2]; group of dyslipidemic patients after acute coronary failure (myocardial infarction),not observed
same,LDL %,"[2]; change visit 2 vs visit 1, 30 mg MNA orally three times a day, 2 weeks, individual patients",18.25% and 23.91% and 107.27% and −40.58% and 0.83% and −23.97% and −35.71% and 14.62% and 78.00% and 12.98%
same,HDL %,[2]; [6],11.11% and 7.89% and −1.67% and −8.82% and −25.45% and −18.18% and −8.00% and −15.91% and −14.29% (2×) and 9.76% and 0.00% and −22.45% and 31.37% and 36.36% and 71.43%
same,Total Cholesterol %,[2]; [6],5.91% and −5.11% and 8.33% and −38.74% and −43.97% and −17.14% and −24.51% and −31.17% and −4.17% and −12.58% and 3.62% and −39.67% and −6.98% and 2.73% and −17.06% and −4.94%
same,Glucose %,[2]; [7],−8.98% and 2.53% and 7.23% and −25.62% and 5.21% and 17.27% and −19.33% and 0.00% and 9.09% and 18.95% and 8.54% and −10.49% and −1.02% and 4.72%
same,Uric Acid %,[2]; [7],−16.28% and 2.33% and −38.62% and 37.14% and 6.45% and 0.00% and −23.19% and 0.95% and −2.59% and −1.69% and 21.96%
same,TG/HDL %,"[2]; change visit 2 vs visit 1, 2 weeks, individual patients nos. 1-16",−32.29% and −54.61% and −54.01% and −43.95% and −41.63% and −36.79% and −33.19% and −19.29% and −14.21% and −60.02% and −15.08% and −68.96% and −26.10% and −59.00% and −84.18% and −3.72%
same,"TG visit 2, Mean Value",[2]; [8],216 mg/dL and 216.31 mg/dL
same,"Total Cholesterol visit 2, Mean Value",[2]; [8],212 mg/dL and 212.56 mg/dL
same,"HDL visit 2, Mean Value",[2]; [9],44.63 mg/dL
same,"TG/HDL visit 2, Mean Value",[2]; [9],5.25
same,"HDL %, Mean Value",[2]; [10],0.85%
same,"TG %, Mean Value",[2]; [10],−47.2% and −47.18%
same,"TG/HDL %, Mean Value",[2]; [10],−45.32%
same,"Total Cholesterol %, Mean Value",[2]; [10],−14.50%
same,"LDL visit 2, Mean Value","[2]; mean of patients with LDL measured, after 2 weeks",131.70 mg/dL
same,"LDL %, Mean Value","[2]; mean of patients with LDL measured, change visit 2 vs visit 1, 2 weeks",7.86%
same,Atherosclerosis progression (lesion area),apoE/LDLR−/− mice,slows atherosclerosis progression
same,TG/HDL ratio,dyslipidemic patients [3]; after the administration of 100 mg MNA (base-line 24.0),16.5
same,HDL,dyslipidemic patients [3]; after the administration of 100 mg MNA (base-line 24.8),29.0 mg/dL
same,TG level,dyslipidemic patients [3]; after the administration of 100 mg MNA (base-line 596),479 mg/dL
same,HDL %,"dyslipidemic patients [3]; single 100 mg MNA, 1 h",2.82%
same,TG %,"dyslipidemic patients [3]; single 100 mg MNA, 1 h",−5.03%
same,TG/HDL %,"dyslipidemic patients [3]; single 100 mg MNA, 1 h",−7.64%
same,Total Cholesterol %,"dyslipidemic patients [3]; single 100 mg MNA, 1 h",1.08%
same,HDL %,"dyslipidemic patients [3]; single 100 mg MNA, 3 h",16.94%
same,TG %,"dyslipidemic patients [3]; single 100 mg MNA, 3 h",-19.63%
same,TG/HDL %,"dyslipidemic patients [3]; single 100 mg MNA, 3 h",−31.27%
same,Total Cholesterol %,"dyslipidemic patients [3]; single 100 mg MNA, 3 h",4.84%
same,TG,"dyslipidemic patients [3]; single 100 mg MNA, 1 h",566 mg/dL
same,TG,"dyslipidemic patients [3]; single 100 mg MNA, 3 h",479 mg/dL
same,HDL,"dyslipidemic patients [3]; single 100 mg MNA, 1 h",25.5 mg/dL
same,TG/HDL,"dyslipidemic patients [3]; single 100 mg MNA, 1 h",22.20
same,Total Cholesterol,"dyslipidemic patients [3]; single 100 mg MNA, 1 h",188 mg/dL
same,HDL,"dyslipidemic patients [3]; single 100 mg MNA, 3 h",29.0 mg/dL
same,TG/HDL,"dyslipidemic patients [3]; single 100 mg MNA, 3 h",16.52
same,Total Cholesterol,"dyslipidemic patients [3]; single 100 mg MNA, 3 h",195 mg/dL
